Data from PubChem BioAssay AID2060622 (Molecular Pharmacology Branch, DTP, NCI, 2025).
Where “and” joins values, the source holds several entries; their conditions need not be identical. Identical values can stand only once.

Tested on: 242566-281-R-J2-PDC complex spheroid viability
Experiment: Anticancer human tumor 242566-281-R-J2-PDC patient-derived pancreatic carcinoma cell line growth inhibition [CLK]
Settings: for viability, T/C: stronger effect = lower value; for IC50: curve of compound
Text: A high-throughput screen of multi-cell type tumor spheroids was designed to identify active combinations of […] and targeted small molecules. Complex spheroids include a stromal component modeled by human endothelial cells (HUVEC) and fibroblasts modeled by human mesenchymal stem cells (MSCs). The concentration ranges selected for each drug and investigational agent were based upon clinically achievable concentrations if the clinical Cmax of the agent was known.
Compounds. The drugs and investigational agents: cirtuvivint (SM08502; NSC835563), CC-671 (NSC850746), vemurafenib (NSC761431), tapotoclax (NSC804041), sotorasib (NSC818433), adagrasib (NSC831453), MRTX-1133 (NSC836407), BAY2416964 (NSC825713), copanlisib (NSC816437), inavolisib (NSC800729), abemaciclib (NSC768073), osimertinib (NSC779217), entinostat (NSC756642), eltanexor (KPT-8602, NSC794443), venetoclax (NSC766270), ceralasertib (NSC777638), bortezomib (NSC756655), olaparib (NSC753686), talazoparib (NSC767125), alisertib (NSC759677), peposertib (NSC802822), gemcitabine (NSC613327), 5-fluorouracil (NSC19893), SN-38 (NSC673596), oxaliplatin (NSC266046), paclitaxel (NSC125973), and doxorubicin (NSC123127), were obtained from the National Cancer Institute (NCI) Developmental Therapeutics Program Chemical Repository. The FDA-approved anticancer drug set is available from the Developmental Therapeutics Program at https://dtp.cancer.gov/organization/dscb/obtaining/available plates.htm. […] The stock solutions were prepared in dimethyl sulfoxide (DMSO, Sigma-Aldrich, St. Louis, MO, cat. D2650), except for the platinum complexes which were prepared in saline (Quality Biological, Gaithersburg, MD, cat. 114-055-101), at 800-fold the tested concentration and stored at -70 degrees C prior to their use. All drugs and investigational agents were tested over a range starting from a high concentration at or near the clinical Cmax and decreasing in half-log increments. If the clinical Cmax for an agent had not been determined, the highest concentration tested was 10 microM.
Cell Culture. All cells were maintained in an incubator at 37 degrees C and 5% CO2 with 95% humidity. The PDC lines were cultured according to standard operating procedures established by the NCI PDMR. Briefly, all PDCs were thawed and cultured in Matrigel-coated flasks prepared with a working solution of 1X Ham's F-12 nutrient mix, without supplementation (Invitrogen, Waltham, MA, cat. 11765054), 100 U/mL penicillin-streptomycin (Invitrogen, cat. 15140122), and 2.5% Matrigel (Corning Inc., Corning, NY, cat. 354248) for the first three passages. The 947758-054-R-J2-PDC line was cultured in 6B/Colon 1A media, which includes advanced DMEM/F-12 (Thermo Fisher Scientific, cat. 12634028), 10 mM HEPES (Thermo Fisher Scientific, cat. 15630080), 1X GlutaMAX supplement (Thermo Fisher Scientific, cat. 35050061), 0.1 mg/mL primocin (InvivoGen, cat. ant-pm-2), 10% defined fetal bovine serum, heat inactivated (HyClone Laboratories Inc., cat. SH30070.03HI), 1.25 mM N-Acetyl-L-cysteine (Sigma-Aldrich, cat. A9165), 10 mM nicotinamide (Sigma-Aldrich, cat. N0636), 1X B-27 supplement (Thermo Fisher Scientific, cat. 17504044), 1X N-2 supplement (Thermo Fisher Scientific, cat. 17502048), and 10 microM Y-27632 dihydrochloride (Tocris Bioscience, cat. 1254). The 876862-298-R-J1-PDC was cultured in 6E media, which includes all 6B/Colon 1A media components plus 50% L-WRN conditioned media (ATCC, cat. CRL-3276), 50 ng/mL recombinant human EGF recombinant protein (hEGF; Thermo Fisher Scientific, cat. PHG0311), 10 ng/mL recombinant human fibroblast growth factor 10 (hGFG-10; PeproTech, cat. 100-26), 1 ng/mL recombinant human fibroblast growth factor 2 (hFGF-2; PeproTech, cat. 100-18B), and 1 µM prostaglandin E2 (PGE2; Tocris, cat. 2296). The 227483-062-R1-J1-PDC line was cultured in Panc media, containing all 6E components except hFGF-2, with the addition of 500 nM SB-431542 (Selleckchem, cat. S1067) and 10 nM gastrin (Tocris, cat. 3006). […]
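Note: spheroids exposed to compounds for 7 days before readout.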
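Throughout, for viability, T/C: 100% = DMSO vehicle control wells.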

SMILES | viability, T/C (compound 0.0316 µM) | viability, T/C (compound 0.1 µM) | viability, T/C (compound 0.316 µM) | viability, T/C (compound 1 µM) | viability, T/C (compound 3.16 µM) | viability, T/C (compound 10 µM) | IC50 | viability, T/C (compound 0.000949 µM) | viability, T/C (compound 0.003 µM) | viability, T/C (compound 0.00949 µM) | viability, T/C (compound 0.03 µM) | viability, T/C (compound 0.0949 µM) | viability, T/C (compound 0.3 µM)
C#Cc1c(F)ccc2cc(O)cc(-c3ncc4c(N5CC6CCC(C5)N6)nc(OCC56CCCN5CC(F)C6)nc4c3F)c12 (stereo unspecified) | 104% and 67.3% | 90.1% and 49.6% | 76.2% and 43.3% | 58.3% and 26.4% | 48.6% and 26% | 40% and 21.3% | – | – | – | – | – | – | –
C=C(F)C(=O)N1CCN(c2nc(OCC3CCCN3C)nc3c2CCN(c2cccc4cccc(Cl)c24)C3)CC1CC#N (stereo unspecified) | 88.1% and 109% | 81.2% and 96.7% | 70.4% and 103% | 116% and 111% | 103% and 83% | 0.27% and 0.16% | 5.35 µM and 5 µM | – | – | – | – | – | –
C=CC(=O)N1CCN(c2nc(=O)n(-c3c(C)ccnc3C(C)C)c3nc(-c4c(O)cccc4F)c(F)cc23)C(C)C1 (stereo unspecified) | 95.5% and 104% | 80.4% and 92.4% | 78.5% and 103% | 104% and 90.6% | 102% and 88.7% | 70.8% and 77.6% | > 10 µM | – | – | – | – | – | –
C=CC(=O)Nc1cc(Nc2nccc(-c3cn(C)c4ccccc34)n2)c(OC)cc1N(C)CCN(C)C | – | – | – | – | – | – | > 0.3 µM | 98.9% and 87.5% | 97.1% and 95.4% | 94.8% and 88.7% | 95.2% and 96.2% | 95.1% and 107% | 69.7% and 97.1%
CC(=O)O[C@H]1C(=O)[C@@]2(C)[C@H]([C@H](OC(=O)c3ccccc3)[C@]3(O)C[C@H](OC(=O)[C@H](O)[C@@H](NC(=O)c4ccccc4)c4ccccc4)C(C)=C1C3(C)C)[C@]1(OC(C)=O)CO[C@@H]1C[C@@H]2O | 34.2% and 57.7% | 33.9% and 45% | 28.5% and 35.4% | 23.9% and 38.6% | 32.5% and 40% | 34.1% and 56.3% | < 0.0316 µM and 0.0601 µM | – | – | – | – | – | –
CC(C)CC(NC(=O)C(Cc1ccccc1)NC(=O)c1cnccn1)B(O)O (stereo unspecified) | – | – | – | – | – | – | 0.00248 µM and 0.00467 µM | 99.7% and 88.2% | 40% and 80.3% | 1.73% and 1.58% | 0.47% and 0.59% | 0.33% and 0.52% | 0.18% and 0.32%
CC(CO)NC(=O)c1cc(-c2ccc(Cl)cc2)nn(-c2cnn(C)c2)c1=O (stereo unspecified) | 94.4% and 97.3% | 96.2% and 94.5% | 85.6% and 102% | 116% and 98.1% | 131% and 97.1% | 75.8% and 82.5% | > 10 µM | – | – | – | – | – | –
CC(Nc1ccc2c(c1)OCCn1cc(N3C(=O)OCC3C(F)F)nc1-2)C(N)=O (stereo unspecified) | 98.6% and 96.1% | 91.6% and 97.8% | 71.3% and 89.9% | 51.9% and 68.2% | 36.4% and 46.8% | 21.7% and 32.6% | 1.18 µM and 2.54 µM | – | – | – | – | – | –
CC1(C)CCC(CN2CCN(c3ccc(C(=O)NS(=O)(=O)c4ccc(NCC5CCOCC5)c([N+](=O)[O-])c4)c(Oc4cnc5[nH]ccc5c4)c3)CC2)=C(c2ccc(Cl)cc2)C1 | 110% and 84.2% | 89.7% and 93.9% | 109% and 102% | 117% and 132% | 109% and 122% | 14.1% and 73.1% | 6.41 µM and > 10 µM | – | – | – | – | – | –
CC1COCCN1c1cc(C2(S(C)(=N)=O)CC2)nc(-c2ccnc3[nH]ccc23)n1 (stereo unspecified) | 108% and 90.3% | 104% and 84.2% | 106% and 81% | 108% and 90.7% | 75.2% and 90.5% | 37.9% and 60.6% | 6.89 µM and > 10 µM | – | – | – | – | – | –
CCCS(=O)(=O)Nc1ccc(F)c(C(=O)c2c[nH]c3ncc(-c4ccc(Cl)cc4)cc23)c1F | 109% and 86.7% | 104% and 98.7% | 94% and 81.7% | 106% and 86% | 104% and 115% | 6.44% and 6.7% | 5.96 µM and 5.64 µM | – | – | – | – | – | –
